For orientation: IC50 means the concentration needed to halve the response being measured.

These results are taken from patent publication US20240140931A1, “TRICYCLIC COMPOUNDS AND USES THEREOF” (HUTCHMED LIMITED, priority 2021, published 2024).

The test system of experiment [1] is pERK1/2 (Thr202/Tyr204) in Miapaca2 cells. Nature of the experiment: Assay of intracellular pERK1/2 (Thr202/Tyr204) phosphorylation. It is filed as cell-based. Particulars: pERK1/2 (Thr202/Tyr204) HTRF. An outline of the steps: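 HTRF read-out (665/615 nm) of phospho-ERK1/2 Thr202/Tyr204 in lysates from Miapaca2 cells exposed for 2 h to 3-fold compound dilutions at 0.5% final DMSO. Controls: lysis buffer without cells and DMSO-treated cells; IC50 from four-parameter logistic fit.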
(In general: TR-FRET usually uses a lanthanide donor and a delayed reading to cut background.)

The test system of a further experiment is Miapaca2 3D spheroids. Nature of the experiment: Assay of cell proliferation on Miapaca2 3D spheroids. It is filed as cell-based. Particulars: CellTiter-Glo 3D, 5 days treatment. The protocol:
Example 4 Assay of Cell Proliferation on Miapaca2 3D Spheroids
1. Reagents and Materials • CellTiter-Glo® 3D Cell Viability Assay Kit: Promega, Cat #G9683; • CellCarrier Spheroid ULA 96-well plate: Corning, Cat #4515; • Instrument: Envision, Perkinelmer; • Cell line: Miapaca2, ATCC, Cat #CRL-1420.
2. Preparation of Reaction Solutions • The test compound was dissolved in DMSO and diluted with DMSO to 3000.0 μM, and the compound was further 3-fold diluted with DMSO to: 1000.0, 333.3, 111.1, 37.0, 12.3, 4.1, and 1.4 μM. Then 2 μL of the compound at different dilution concentrations was added to 198 μL of a 1640 medium to prepare a 10× test compound, wherein DMSO was at the concentration of 1% (DMSO was at the final concentration of 0.1%).
3. Experimental Methods • Day0: Digest cells and count cell numbers. Miapaca2 cells were inoculated into a spheroid ULA 96-well plate at a density of 300 cells/well at 100 μL/well and cultured in a cell incubator at 5% CO2 and 37° C. • Day2: The cell spheroids formed at day2. Add 10 μL of 10× test compounds to the 96-well plate. To the cell positive control well was added 10 μL of 1% DMSO 1640 medium. Incubate the cell spheroids in a cell incubator at 5% CO2 and 37° C. for additional 5 days. • Cell viability assay: Add 50 μL of CellTiter-Glo reagent to each well, place the plate in a microplate shaker, and lysis under shaking at 900 rpm at room temperature for 5 minutes. Then incubate the plate at room temperature in the dark for 30 minutes. • The luminescene of each well was detected on Envision2104.
Cell Survial %=(Lum(d7 treatment)−Lum(d2 cell))/(Lum(d7 cell)−Lum(d2 cell))×100
Wherein: • Lum(d7 treatment) refers to the luminescene of the test compound treated cells on day7; • Lum(d2 cell) refers to the luminescene of the 0.1% DMSO treated Miapaca2 cells on day2; • Lum(d7 cell) refers to the luminescene of the 0.1% DMSO treated Miapaca2 cells on day7. • IC50 values were calculated following formula 205: y=A+((B−A)/(1+((C/X)^D))), by using the XL-Fit 5.0 software.
(Cellular ATP, detected with luciferase, serves as a proxy for viable cell number.)

Experiment [2] has as its target Human full-length SHP2 recombinant protein (Homo sapiens (Human), UniProt Q06124). Nature of the experiment: Assay of full-length SHP2 phosphatase activity. It is filed as biochemical. The settings on record: DiFMUP substrate, with activating peptide. An outline of the steps: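 Readout: DiFMUP hydrolysis fluorescence (355/460 nm) after 60 min at 25 °C, following 30 min RT preincubation of compound with peptide-activated full-length human SHP2. Controls were 1% DMSO with or without enzyme; IC50 by four-parameter logistic fit.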

Where [3] appears, read: Homo sapiens, MIA PaCa-2, 120 h.

Chain of Human full-length SHP2 recombinant protein (Q06124 whole entry): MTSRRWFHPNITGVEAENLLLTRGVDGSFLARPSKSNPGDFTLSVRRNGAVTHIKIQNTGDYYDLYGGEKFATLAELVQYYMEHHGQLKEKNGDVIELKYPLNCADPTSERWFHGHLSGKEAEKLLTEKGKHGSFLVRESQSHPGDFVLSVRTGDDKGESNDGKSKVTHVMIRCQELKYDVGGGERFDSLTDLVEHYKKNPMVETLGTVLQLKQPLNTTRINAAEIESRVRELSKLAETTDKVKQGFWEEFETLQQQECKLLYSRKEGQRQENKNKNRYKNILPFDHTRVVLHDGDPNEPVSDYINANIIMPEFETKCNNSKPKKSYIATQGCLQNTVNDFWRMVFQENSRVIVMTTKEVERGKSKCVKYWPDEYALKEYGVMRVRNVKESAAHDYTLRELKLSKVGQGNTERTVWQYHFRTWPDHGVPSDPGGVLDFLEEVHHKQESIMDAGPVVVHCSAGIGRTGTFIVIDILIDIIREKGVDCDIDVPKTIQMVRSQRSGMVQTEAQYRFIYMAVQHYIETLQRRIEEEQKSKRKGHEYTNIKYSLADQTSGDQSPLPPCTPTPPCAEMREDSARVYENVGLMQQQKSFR

Consider `CCNC(=O)C#Cc1ccc2c(c1)[C@@H](N)C1(CCN(c3ncc(Sc4ccnc(N)n4)nc3C)CC1)C2` [Compound 261], for which the IC50 in experiment [1] (Homo sapiens, MIA PaCa-2, 2 h) came out at 7 nM; in the experiment on Miapaca2 3D spheroids (setting [3]), 2 nM; in experiment [2], 0.9 nM.

Consider `COCCN(C)C(=O)C#Cc1ccc2c(c1)[C@@H](N)C1(CCN(c3cnc(Sc4ccnc(N)c4Cl)cn3)CC1)C2` [Compound 301], for which the IC50 in experiment [1] (Homo sapiens, MIA PaCa-2, 2 h) is 5 nM; in the experiment with Miapaca2 3D spheroids (setting [3]) it was 1 nM; in experiment [2], 0.4 nM.

As to `Cc1nc(N2CCC3(CC2)Cc2ccc(C#CC(=O)N(C)C)cc2[C@H]3N)cc(=O)n1-c1cccc(Cl)c1Cl` [Compound 194], the IC50 is 18 nM in experiment [1] (Homo sapiens, MIA PaCa-2, 2 h); 36 nM with Miapaca2 3D spheroids (setting [3]); 1 nM in experiment [2].

Regarding `Cc1nc(Sc2ccnc(N)c2Cl)c(N)nc1N1CCC2(CC1)Cc1ccc(C#CC(=O)O)cc1[C@H]2N` [Compound 283], the IC50 in experiment [1] (Homo sapiens, MIA PaCa-2, 2 h) amounted to 737 nM; in the experiment on Miapaca2 3D spheroids (setting [3]) it was 243 nM; in experiment [2], 1 nM.

Consider `NC(=O)C#Cc1ccc2c(c1)[C@@H](N)C1(CCN(c3cnc(Sc4ccnc(N)c4F)c(N)n3)CC1)C2` [Compound 275], for which the IC50 was 2 nM in experiment [1] (Homo sapiens, MIA PaCa-2, 2 h); 2 nM with Miapaca2 3D spheroids (setting [3]); 0.5 nM in experiment [2].

As to `Cc1nc(Sc2ccnc(N)c2Cl)c(N)nc1N1CCC2(CC1)Cc1ccc(C#CC(=O)N(C)C)cc1[C@H]2N` [Compound 203], the IC50 was 7 nM in experiment [1] (Homo sapiens, MIA PaCa-2, 2 h); 16 nM with Miapaca2 3D spheroids (setting [3]); 2 nM in experiment [2].

As to `C#Cc1ccc2c(c1)[C@@H](N)C1(CCN(c3cc(=O)n(-c4ccc(F)c(OC)c4Cl)c(C)n3)CC1)C2` (atropisomer, axis not shown) [Compound 161], the IC50 in experiment [1] (2 hours) came to 13 nM; in the experiment with Miapaca2 3D spheroids it was 8 nM; in experiment [2] it was 1 nM.

With `Cc1nc(Sc2ccnc(N)c2Cl)c(N)nc1N1CCC2(CC1)Cc1ccc(C#CC(=O)NC3CC3)cc1[C@H]2N` [Compound 225], the IC50 in experiment [1] (Homo sapiens, MIA PaCa-2, 2 h) worked out at 6 nM; in the experiment on Miapaca2 3D spheroids (setting [3]), 2 nM; in experiment [2], 2 nM.

As to `COCC#Cc1ccc2c(c1)[C@@H](N)C1(CCN(c3cc(=O)n(-c4ccc(C#N)c(OC)c4F)c(C)n3)CC1)C2` [Compound 197], the IC50 in experiment [1] (Homo sapiens, MIA PaCa-2, 2 h) stood at 29 nM; in the experiment with Miapaca2 3D spheroids (setting [3]), 38 nM; in experiment [2], 3 nM.

As for `CNC(=O)C#Cc1ccc2c(c1)[C@@H](N)C1(CCN(c3cnc(Sc4ccnc(N)c4Cl)cn3)CC1)C2` [Compound 227], the IC50 in experiment [1] (Homo sapiens, MIA PaCa-2, 2 h) was determined as 2 nM; in the experiment on Miapaca2 3D spheroids (setting [3]), 0.4 nM; in experiment [2], 1 nM.

Take `CCNC(=O)C#Cc1ccc2c(c1)[C@@H](N)C1(CCN(c3cnc(Sc4c(F)cnc(N)c4Cl)cn3)CC1)C2` [Compound 269]: the IC50 in experiment [1] (Homo sapiens, MIA PaCa-2, 2 h) was determined as 7 nM; with Miapaca2 3D spheroids (setting [3]), 3 nM; in experiment [2], 0.9 nM.

Consider `CC#Cc1ccc2c(c1)[C@@H](N)C1(CCN(c3ncc(Sc4ccnc(N)c4Cl)c(=O)n3C)CC1)C2` [Compound 288], for which the IC50 in experiment [1] (Homo sapiens, MIA PaCa-2, 2 h) is 4 nM; in the experiment on Miapaca2 3D spheroids (setting [3]), 2 nM; in experiment [2] it was 2 nM.

On to `CCNC(=O)C#Cc1ccc2c(c1)[C@@H](N)C1(CCN(c3ncc(Sc4ccnc(N)c4Cl)nc3C)CC1)O2` [Compound 259], for which the IC50 worked out at 23 nM in experiment [1] (Homo sapiens, MIA PaCa-2, 2 h); 5 nM with Miapaca2 3D spheroids (setting [3]); 4 nM in experiment [2].

For the molecule `CCNC(=O)C#Cc1ccc2c(c1)[C@@H](N)C1(CCN(c3cnc(Sc4ccnc(N)c4Cl)cn3)CC1)C2` [Compound 155], the IC50 in experiment [1] (Homo sapiens, MIA PaCa-2, 2 h) turned out to be 2 nM; with Miapaca2 3D spheroids (setting [3]), 0.9 nM; in experiment [2], 1 nM.

On to `Cc1nc(N2CCC3(CC2)Cc2ccc(C#CC(N)=O)cc2[C@H]3N)cnc1Sc1ccnc(N)c1Cl` [Compound 277], for which the IC50 in experiment [1] (Homo sapiens, MIA PaCa-2, 2 h) amounted to 11 nM; in the experiment with Miapaca2 3D spheroids (setting [3]), 5 nM; in experiment [2], 1 nM.

For `C#Cc1ccc2c(c1)[C@@H](N)C1(CCN(c3cc(=O)n(-c4cccc(Cl)c4Cl)c(N)n3)CC1)C2` [Compound 245], the IC50 in experiment [1] (Homo sapiens, MIA PaCa-2, 2 h) is 12 nM; in the experiment with Miapaca2 3D spheroids (setting [3]) it was 17 nM; in experiment [2] it was less than 0.5 nM.

`CC#Cc1ccc2c(c1)[C@@H](N)C1(CCN(c3cc(=O)n(-c4ccc(F)c(OC)c4Cl)c(C)n3)CC1)C2` (atropisomer, axis not shown) [Compound 207]: the IC50 in experiment [1] (2 hours) was found to be 9 nM; in the experiment on Miapaca2 3D spheroids (setting [3]), 35 nM; in experiment [2], 2 nM.

Consider `CNC(=O)C#Cc1ccc2c(c1)[C@@H](N)C1(CCN(c3nc(C)n(-c4cccc(Cl)c4Cl)c(=O)c3C)CC1)C2` [Compound 174], for which the IC50 in experiment [1] (Homo sapiens, MIA PaCa-2, 2 h) was determined as 33 nM; with Miapaca2 3D spheroids (setting [3]) it was 53 nM; in experiment [2] it was 6 nM.

As to `CNC(=O)C#Cc1ccc2c(c1)[C@@H](N)C1(CCN(c3cnc(Sc4ccnc(N)c4Cl)c(N)n3)CC1)C2` [Compound 229, (S)-3-(1-amino-1′-(6-amino-5-((2-amino-3-chloropyridin-4-yl)thio)pyrazin-2-yl)-1,3-dihydrospiro[indene-2,4′-piperidin]-6-yl)-N-methylpropiolamide], the IC50 in experiment [1] (Homo sapiens, MIA PaCa-2, 2 h) was determined as 2 nM; in the experiment on Miapaca2 3D spheroids (setting [3]), 0.5 nM; in experiment [2] it was 1 nM.

As for `CNC(=O)C#Cc1ccc2c(c1)[C@@H](N)C1(CCN(c3cnc(Sc4ccnc(N)c4F)cn3)CC1)C2` [Compound 265], the IC50 in experiment [1] (Homo sapiens, MIA PaCa-2, 2 h) came to 0.9 nM; with Miapaca2 3D spheroids (setting [3]) it was 0.4 nM; in experiment [2] it was 0.4 nM.

Turning to `C#Cc1ccc2c(c1)[C@@H](N)C1(CCN(c3ncc(Sc4ccnc(N)c4Cl)n4nccc34)CC1)C2` [Compound 156], the IC50 in experiment [1] (Homo sapiens, MIA PaCa-2, 2 h) came out at 10 nM; in the experiment on Miapaca2 3D spheroids (setting [3]), 31 nM; in experiment [2] it was 6 nM.

Regarding `CNC(=O)C#Cc1ccc2c(c1)[C@@H](N)C1(CCN(c3cnc(Sc4cccnc4Cl)cn3)CC1)C2` [Compound 231], the IC50 in experiment [1] (Homo sapiens, MIA PaCa-2, 2 h) is 7 nM; in the experiment with Miapaca2 3D spheroids (setting [3]) it was 0.8 nM; in experiment [2], less than 0.5 nM.

As to `COCC#Cc1cc(F)c2c(c1)[C@@H](N)C1(CCN(c3cc(=O)n(-c4cccc(Cl)c4Cl)c(C)n3)CC1)C2` [Compound 166], the IC50 in experiment [1] (Homo sapiens, MIA PaCa-2, 2 h) is 38 nM; with Miapaca2 3D spheroids (setting [3]), 110 nM; in experiment [2], 6 nM.

As to `CCNC(=O)C#Cc1ccc2c(c1)[C@@H](N)C1(CCN(c3cnc(Sc4ccnc(N)c4F)cn3)CC1)C2` [Compound 257], the IC50 in experiment [1] (Homo sapiens, MIA PaCa-2, 2 h) was 1 nM; in the experiment with Miapaca2 3D spheroids (setting [3]) it was 0.3 nM; in experiment [2], less than 0.5 nM.

With `CCNC(=O)C#Cc1ccc2c(c1)[C@@H](N)C1(CCN(c3cnc(N4CCCc5ncccc54)cn3)CC1)C2` [Compound 243, (S)-3-(1-amino-1′-(5-(3,4-dihydro-1,5-naphthyridin-1(2H)-yl)pyrazin-2-yl)-1,3-dihydrospiro[indene-2,4′-piperidin]-6-yl)-N-ethylpropiolamide], the IC50 turned out to be 19 nM in experiment [1] (Homo sapiens, MIA PaCa-2, 2 h); 15 nM in the experiment on Miapaca2 3D spheroids (setting [3]); 0.7 nM in experiment [2].

For the molecule `COCCNC(=O)C#Cc1ccc2c(c1)[C@@H](N)C1(CCN(c3cnc(Sc4ccnc(N)c4F)cn3)CC1)C2` [Compound 298], the IC50 in experiment [1] (Homo sapiens, MIA PaCa-2, 2 h) is 1 nM; in the experiment with Miapaca2 3D spheroids (setting [3]), 0.3 nM; in experiment [2] it was 0.3 nM.

Turning to `CCNC(=O)C#Cc1ccc2c(c1)[C@@H](N)C1(CCN(c3ncc(Sc4ccnc(N)c4Cl)nc3C)CC1)C2` [Compound 290], the IC50 in experiment [1] (Homo sapiens, MIA PaCa-2, 2 h) was 4 nM; in the experiment on Miapaca2 3D spheroids (setting [3]) it was 0.3 nM; in experiment [2], 1 nM.

Consider `CC#Cc1ccc2c(c1)[C@@H](N)C1(CCN(c3cc(=O)n(-c4cccc(OC)c4Cl)c(C)n3)CC1)C2` [Compound 206], for which the IC50 in experiment [1] (Homo sapiens, MIA PaCa-2, 2 h) was determined as 69 nM; with Miapaca2 3D spheroids (setting [3]), 78 nM; in experiment [2], 3 nM.
